Read-outs that look alike come from different tables or passages of the source.
Experiments:
human CB2R = molecular target: T1, human CB2R (Homo sapiens, UniProt P34972); experiment: in vitro binding affinity assay, membrane homogenates of CHO cells stably transfected with human CB2R, radioligand [3H]WIN55212-2; conditions: for Selectivity index (SI): SI = K iCB1R/K iCB2R; for Ki / K iCB2R mean: human CB2R, CHO membranes, [3H]WIN55212-2, mean of two values; for Ki: read-out: K iCB2R mean
T1 construct: expressed in transfected cells; host or cells: Chinese hamster ovary (CHO) cells, stably transfected; crude membrane homogenates
T1 sequence (P34972 whole entry): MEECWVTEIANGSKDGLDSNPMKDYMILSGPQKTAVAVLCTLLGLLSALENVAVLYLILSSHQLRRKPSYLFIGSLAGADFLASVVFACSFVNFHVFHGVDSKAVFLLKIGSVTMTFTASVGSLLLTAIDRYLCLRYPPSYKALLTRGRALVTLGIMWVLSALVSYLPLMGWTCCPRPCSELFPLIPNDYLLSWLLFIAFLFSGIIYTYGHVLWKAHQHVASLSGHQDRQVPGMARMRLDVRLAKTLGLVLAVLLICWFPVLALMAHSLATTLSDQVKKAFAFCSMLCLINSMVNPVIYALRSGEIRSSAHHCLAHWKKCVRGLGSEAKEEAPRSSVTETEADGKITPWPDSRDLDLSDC
Description: (§1) The eight target compounds 2 o , m , p , 3 o , m , p , 4, and 5 have been investigated in in vitro binding affinity assays using crude membrane preparations obtained from Chinese hamster ovary cells stably transfected with either human CB1R or CB2R and the target‐specific radioligands [ ^ 3 H]SR141716A and [ ^ 3 H]WIN55212‐2, respectively (structures shown in Figure S90, Supporting Information).
(§2) The affinity assays have been performed with membrane homogenates from Chinese hamster ovary cells (CHO) stably transfected either with human CB2R or CB1R. Already published protocols have been used.^[ [99] ^]

human CB1R = molecular target: T2, human CB1R (Homo sapiens, UniProt P21554); experiment: in vitro binding affinity assay, membrane homogenates of CHO cells stably transfected with human CB1R, radioligand [3H]SR141716A; conditions: CHO membranes, mean of two values (c: mean of three values), read-out: K iCB1R mean
T2 construct: expressed in transfected cells; host or cells: Chinese hamster ovary (CHO) cells, stably transfected; crude membrane homogenates
T2 sequence (P21554 whole entry): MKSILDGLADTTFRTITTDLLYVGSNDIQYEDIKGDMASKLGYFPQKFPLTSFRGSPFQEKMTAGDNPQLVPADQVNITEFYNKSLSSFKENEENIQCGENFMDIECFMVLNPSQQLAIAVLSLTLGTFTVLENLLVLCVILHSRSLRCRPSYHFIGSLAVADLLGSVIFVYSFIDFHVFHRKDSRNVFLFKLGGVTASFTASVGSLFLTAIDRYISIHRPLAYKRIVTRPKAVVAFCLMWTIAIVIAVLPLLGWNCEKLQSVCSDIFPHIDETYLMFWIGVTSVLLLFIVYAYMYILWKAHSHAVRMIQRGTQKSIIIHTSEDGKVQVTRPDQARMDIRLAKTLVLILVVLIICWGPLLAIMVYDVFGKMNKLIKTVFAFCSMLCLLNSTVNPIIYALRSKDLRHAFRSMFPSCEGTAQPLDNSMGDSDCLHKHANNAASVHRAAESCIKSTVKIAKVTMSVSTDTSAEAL
Description: as §1, §2

[1] = stability in DMSO/H2O (1:1, v/v) by HPLC-UV-MS; format: physicochemical; conditions: RP-HPLC
Method: The stability was determined analogously to the purity determination and as described in a previous publication.^[ [79] ^] Instead of CH3CN or MeOH, a solvent mixture of DMSO/H2O (1:1, v/v) was used for all samples, as well as the blank measurements. Measurements were conducted directly after solvent addition and up to three days (Figure S82–S89, Supporting Information).
5 Determi naƟon of the Stability of Compounds 2o,m,p, 3o,m,p, 4, and 5
The stability measurements have been performed with an HPLC-UV-MS on an RP column. Blank samples of pure DMSO/H20 (1:1, v/v) have been measured prior to the target compounds. The target compounds have been dissolved in DMSO/H2O (1:1, v/v) for stability determinaƟon. The measurements have been started directly aŌer the addiƟon of the water. The double peaks or shoulders of the signals of the compound are related to the column that has been used. Broad signals have been obser ved in case of the nido-carborane derivaƟves .
Figure S82. RP-HPLC chromatograms of blank (DMSO/H2O, black and dark blue) and compound 2o, retention time: 11.4 min, purity after 2.5 d: […]

CB2R [2] = experiment: CB2R binding affinity, literature value of Lucchesi et al., other testing conditions; conditions: SI = K iCB1R/K iCB2R, from literature values
Description: Table 1 Binding affinities of target compounds 2 o , m , p , 3 o , m , p , 4, and 5. | column: Selectivity index (SI) ^e)

CB2R [3] = molecular target: CB2R; design: method as in PMID 25272206; conditions: mean of at least three separate experiments in duplicate, other testing conditions; read-out: K iCB2R mean; cited from earlier work
CB1R = molecular target: CB1R; design: method as in PMID 25272206; conditions: mean of at least three separate experiments in duplicate, other testing conditions; read-out: K iCB1R mean; cited from earlier work
CB2R [4] = molecular target: CB2R; design: method as in PMID 36944112; conditions: previously reported; L7 (ortho): one value; read-out: K iCB2R mean; cited from earlier work

Molecule	Selectivity index (SI) (human CB2R)	Ki (human CB2R)	Ki (human CB1R)	purity after 1 d (stability) [1]	other results
1‐(4‐Fluorobenzyl)‐6‐iodo‐2‐oxo‐N‐(1,2‐closo‐dicarba‐dodecaborane)‐1,2‐dihydro‐1,8‐naphthyridine‐3‐carboxamide [3 o]	260	15.2 nM	3940 nM	–	purity after 6 h (stability) [1]: 93%; purity after 6 h (stability) ([1]; listed as 3o): ~ 93%
1‐(4‐Fluorobenzyl)‐6‐iodo‐2‐oxo‐N‐(1,7‐closo‐dicarba‐dodecaborane)‐1,2‐dihydro‐1,8‐naphthyridine‐3‐carboxamide [3 m]	877	6.95 nM	6090 nM	~ 98%	–
1‐(4‐Fluorobenzyl)‐6‐iodo‐2‐oxo‐N‐(1,12‐closo‐dicarba‐dodecaborane)‐1,2‐dihydro‐1,8‐naphthyridine‐3‐carboxamide [3 p]	730	7.55 nM	5520 nM	> 98%	–
6‐Bromo‐1‐(4‐fluorobenzyl)‐2‐oxo‐N‐(1,2‐closo‐dicarba‐dodecaborane)‐1,2‐dihydro‐1,8‐naphthyridine‐3‐carboxamide [2 o]	3378	29 nM	97800 nM	–	purity after 2.5 d (stability) ([1]; after 2.5 d): > 98%
6‐Bromo‐1‐(4‐fluorobenzyl)‐2‐oxo‐N‐(1,7‐closo‐dicarba‐dodecaborane)‐1,2‐dihydro‐1,8‐naphthyridine‐3‐carboxamide [2 m]	273	6.16 nM	1680 nM	~ 98%	–
6‐Bromo‐1‐(4‐fluorobenzyl)‐2‐oxo‐N‐(1,12‐closo‐dicarba‐dodecaborane)‐1,2‐dihydro‐1,8‐naphthyridine‐3‐carboxamide [2 p]	937	7.71 nM	7220 nM	–	–
C[C@H]1CC[C@@H](NC(=O)c2cc3cc(Br)cnc3n(Cc3ccc(F)cc3)c2=O)CC1 [L1 (cis)]	–	–	–	–	Selectivity index (SI) (CB2R [2]): 1010; Ki (CB2R [3]): 0.12 ± 0.002 nM; Ki (CB1R): 121 ± 5.32 nM
(Z)‐N‐[3‐(4‐fluoro[^18F]butyl‐d 8)‐4,5‐dimethylthiazole‐2(3 H)‐ylidene]‐(1,7‐dicarba‐closo‐dodecaboranyl)‐carboxamide [[18F]LUZ5-d8]	–	–	–	–	Ki (CB2R [4]): 0.8 nM
Sodium 1‐(4‐Fluorobenzyl)‐6‐iodo‐2‐oxo‐N‐(7,8‐nido‐dicarba‐dodecahydroundecaborate(–1))‐1,2‐dihydro‐1,8‐naphthyridine‐3‐carboxamide [Compound 5]	247	368 nM	90800 nM	> 97%	K iCB2R mean (human CB2R): very low affinity
Sodium 6‐Bromo‐1‐(4‐fluorobenzyl)‐2‐oxo‐N‐(7,8‐nido‐dicarba‐dodecahydroundecaborate(–1))‐1,2‐dihydro‐1,8‐naphthyridine‐3‐carboxamide [Compound 4]	62	857 nM	53200 nM	–	K iCB2R mean (human CB2R): very low affinity; purity after 3 d (stability) ([1]; after 3 d): ~ 98%

— publication PMC12444839, “Development of Carborane‐Based Halogenated Naphthyridinone‐Analogues as Cannabinoid Receptor Type 2 (CB2R) Ligands” (Chemmedchem, 2025)
